Results as given in ChEMBL document CHEMBL1157860, “CoMFA and CoMSIA studies on HIV-1 attachment inhibitors” (Eur J Med Chem, 2010).

test: Inhibition of HIV1 gp120 binding to CD4 in human HeLa cells by cell fusion assay; format: cell-based, Human immunodeficiency virus 1

Structure (SMILES) | EC50 | pEC50
C=CCn1cc(C(=O)C(=O)N2CCN(C(=O)c3ccccc3)CC2)c2ccccc21 | 6760 nM | 5.17
O=C(C(=O)N1CCN(C(=O)c2ccccc2)CC1)c1c[nH]c2cccc(F)c12 | 2.59 nM | 8.59
O=C(C(=O)N1CCN(C(=O)c2ccccc2)CC1)c1c[nH]c2ccccc12 | 153 nM | 6.82
CCOc1cccc2c(C(=O)C(=O)N3CCN(C(=O)c4ccccc4)CC3)c[nH]c12 | 0.5 nM | 9.3
N#Cc1ccc2[nH]cc(C(=O)C(=O)N3CCN(C(=O)c4ccccc4)CC3)c2c1 | 121000 nM | 3.92
O=C(C(=O)N1CCN(C(=O)c2ccccc2)CC1)c1c[nH]c2cccc(Br)c12 | 4.5 nM | 8.35
O=C(C(=O)N1CCN(C(=O)c2ccccc2)CC1)c1c[nH]c2cccc([N+](=O)[O-])c12 | 150 nM | 6.82
CC(=O)Oc1ccc2[nH]cc(C(=O)C(=O)N3CCN(C(=O)c4ccccc4)CC3)c2c1 | 952 nM | 6.02
O=C(C(=O)N1CCN(C(=O)c2ccccc2)CC1)c1c[nH]c2cc(Cl)ccc12 | 208 nM | 6.68
COc1ccc2c(C(=O)C(=O)N3CCN(C(=O)c4ccccc4)CC3)c[nH]c2c1 | 329 nM | 6.48
CC(=O)Oc1cccc2[nH]cc(C(=O)C(=O)N3CCN(C(=O)c4ccccc4)CC3)c12 | 24900 nM | 4.6
O=C(C(=O)N1CCN(C(=O)c2ccccc2)CC1)c1c[nH]c2c(F)c(F)c(F)c(F)c12 | 1.7 nM | 8.77
CCn1cc(C(=O)C(=O)N2CCN(C(=O)c3ccccc3)CC2)c2ccccc21 | 1450 nM | 5.84
O=C(C(=O)N1CCN(C(=O)c2ccccc2)CC1)c1cn(Cc2ccccc2)c2ccccc12 | 13800 nM | 4.86
CCCCn1cc(C(=O)C(=O)N2CCN(C(=O)c3ccccc3)CC2)c2ccccc21 | 2650 nM | 5.58
O=C(C(=O)N1CCN(C(=O)c2ccccc2)CC1)c1c[nH]c2ccc([N+](=O)[O-])cc12 | 3800 nM | 5.42
CCOc1cccc2[nH]cc(C(=O)C(=O)N3CCN(C(=O)c4ccccc4)CC3)c12 | 0.45 nM | 9.35
O=C(C(=O)N1CCN(C(=O)c2ccccc2)CC1)c1c[nH]c2ccc(F)cc12 | 838 nM | 6.08

Structure (SMILES) | EC50 | pEC50
O=C(C(=O)N1CCN(C(=O)c2ccccc2)CC1)c1c[nH]c2ccc(Cl)cc12 | 395 nM | 6.4
O=C(C(=O)N1CCN(C(=O)c2ccccc2)CC1)c1c[nH]c2ccc(Br)cc12 | 1090 nM | 5.96
Cc1ccc2[nH]cc(C(=O)C(=O)N3CCN(C(=O)c4ccccc4)CC3)c2c1 | 1550 nM | 5.81
O=C(C(=O)N1CCN(C(=O)c2ccccc2)CC1)c1c[nH]c2cc(F)c(Br)c(F)c12 | 23.1 nM | 7.64
CCc1cccc2c(C(=O)C(=O)N3CCN(C(=O)c4ccccc4)CC3)c[nH]c12 | 24.2 nM | 7.62
CCCCOc1cccc2c(C(=O)C(=O)N3CCN(C(=O)c4ccccc4)CC3)c[nH]c12 | 0.14 nM | 9.85
O=C(C(=O)N1CCN(C(=O)c2ccccc2)CC1)c1c[nH]c2cc(F)cc(F)c12 | 0.42 nM | 9.38
O=C(C(=O)N1CCN(C(=O)c2ccccc2)CC1)c1c[nH]c2c(Br)cccc12 | 17.4 nM | 7.76
O=C(C(=O)N1CCN(C(=O)c2ccccc2)CC1)c1c[nH]c2cccc(O)c12 | 20100 nM | 4.7
O=C(C(=O)N1CCN(C(=O)c2ccccc2)CC1)c1c[nH]c2c(F)cccc12 | 7.3 nM | 8.14
Cn1cc(C(=O)C(=O)N2CCN(C(=O)c3ccccc3)CC2)c2ccccc21 | 265 nM | 6.58
COc1cc2[nH]cc(C(=O)C(=O)N3CCN(C(=O)c4ccccc4)CC3)c2cc1OC | 46500 nM | 4.33
O=C(C(=O)N1CCN(C(=O)c2ccccc2)CC1)c1c[nH]c2c(Cl)cccc12 | 4.4 nM | 8.36
O=C(C(=O)N1CCN(C(=O)c2ccccc2)CC1)c1c[nH]c2c(Br)cc(F)cc12 | 73.1 nM | 7.14
O=C(C(=O)N1CCN(C(=O)c2ccccc2)CC1)c1c[nH]c2cc(Cl)c(Cl)cc12 | 500 nM | 6.3
O=C(C(=O)N1CCN(C(=O)c2ccccc2)CC1)c1c[nH]c2c(OCC(F)(F)F)ccc(F)c12 | 0.71 nM | 9.15
O=C(C(=O)N1CCN(C(=O)c2ccccc2)CC1)c1c[nH]c2cccc(Cl)c12 | 4.3 nM | 8.37
O=C(C(=O)N1CCN(C(=O)c2ccccc2)CC1)c1c[nH]c2cc(F)ccc12 | 21.1 nM | 7.68

Now from value to compound:

EC50 | pEC50 | Structure (SMILES)
0.07 nM | 10.15 | COc1ccc(Cl)c2[nH]cc(C(=O)C(=O)N3CCN(C(=O)c4ccccc4)CC3)c12
21100 nM | 4.68 | COc1ccc2[nH]cc(C(=O)C(=O)N3CCN(C(=O)c4ccccc4)CC3)c2c1
42.8 nM | 7.37 | O=C(C(=O)N1CCN(C(=O)c2ccccc2)CC1)c1c[nH]c2c(Br)ccc(OC(F)(F)F)c12
0.13 nM | 9.89 | O=C(C(=O)N1CCN(C(=O)c2ccccc2)CC1)c1c[nH]c2c(Br)ccc(F)c12
0.35 nM | 9.46 | O=C(C(=O)N1CCN(C(=O)c2ccccc2)CC1)c1c[nH]c2c(F)ccc(F)c12
4.9 nM | 8.31 | N#Cc1cccc2c(C(=O)C(=O)N3CCN(C(=O)c4ccccc4)CC3)c[nH]c12
1.9 nM | 8.72 | N#Cc1ccc(F)c2c(C(=O)C(=O)N3CCN(C(=O)c4ccccc4)CC3)c[nH]c12
89.5 nM | 7.05 | Cc1cccc2c(C(=O)C(=O)N3CCN(C(=O)c4ccccc4)CC3)c[nH]c12
0.13 nM | 9.89 | COc1ccc(Br)c2[nH]cc(C(=O)C(=O)N3CCN(C(=O)c4ccccc4)CC3)c12
0.56 nM | 9.25 | Cc1ccc(F)c2c(C(=O)C(=O)N3CCN(C(=O)c4ccccc4)CC3)c[nH]c12
0.23 nM | 9.64 | COc1ccc(OC)c2c(C(=O)C(=O)N3CCN(C(=O)c4ccccc4)CC3)c[nH]c12
0.06 nM | 10.22 | COc1ccc(C#N)c2[nH]cc(C(=O)C(=O)N3CCN(C(=O)c4ccccc4)CC3)c12
0.06 nM | 10.22 | COc1ccc(F)c2c(C(=O)C(=O)N3CCN(C(=O)c4ccccc4)CC3)c[nH]c12
6.6 nM | 8.18 | COc1cccc2c(C(=O)C(=O)N3CCN(C(=O)c4ccccc4)CC3)c[nH]c12
0.52 nM | 9.28 | COc1cccc2[nH]cc(C(=O)C(=O)N3CCN(C(=O)c4ccccc4)CC3)c12
8.2 nM | 8.09 | O=C(C(=O)N1CCN(C(=O)c2ccccc2)CC1)c1c[nH]c2c(F)ccc(Br)c12
